Experimental data reported in patent US20230061201A1, “COMPOSITION FOR PREVENTING OR TREATING CHRONIC OBSTRUCTIVE PULMONARYDISEASE COMPRISING REGORAFENIB AS ACTIVE INGREDIENT” (Chungbuk National University Industry-Academic Cooperation …, priority 2021, published 2023).

Assays:
Type in all cases: in vivo, C57BL/6 mice
[1] = test system: mouse animal model with emphysema induced by porcine pancreatic elastase (PPE); assay: Immune cells in bronchoalveolar lavage fluid of PPE-induced emphysema mice; settings: BAL fluid day 4
Source text: The present inventors performed an experiment to determine whether regorafenib has activity capable of treating chronic obstructive pulmonary disease. The initial response induced by PPE (porcine pancreatic elastase) representatively includes immune responses that occur in damaged lung tissue. The activated immune response promotes the proliferation of various immune cells and the secretion of various inflammatory mediators. Specifically, the overall number of immune cells increases with an increase in individual immune cells involved in the immune response. In particular, an increase in the numbers of macrophages, lymphocytes, eosinophils, and neutrophils is observed. The increase in the number of these cells can be confirmed through a bronchoalveolar lavage (BAL) fluid test.
Therefore, in the present invention, mice with chronic obstructive pulmonary disease, particularly emphysema, in which alveolar damage was induced by reducing elastin content using PPE, were prepared and then treated with regorafenib to thus analyze whether chronic obstructive pulmonary disease was ameliorated. Specifically, 6-week-old C57BL/6 mice were purchased and acclimatized for one week. Thereafter, the acclimatized 7-week-old mice (average 25 g) were orally administered with 200 µl of regorafenib (SelleckChem, BAY 73-4506) at a concentration of 5 mg/kg. […] The stained slide was analyzed and quantified using a microscope.
According to the method described above, a mouse animal model of chronic obstructive pulmonary disease was prepared by administering the mouse lungs with 5U of PPE, and in order to verify whether the immune response was modulated, one day before administration of PPE and on days 2 and 3 after administration of PPE, regorafenib (5 mg/kg) was administered thereto, and on day 4, bronchoalveolar lavage fluid was obtained and the immune cells therein were stained to thus quantitatively analyze the type of immune cells and the number of individual cells. […]

[2] = test system: mouse animal model with emphysema induced by porcine pancreatic elastase (PPE); assay: Alveolar size (mean linear intercept, Lm) in PPE-induced emphysema mice; settings: regorafenib 5 mg/kg oral for one week from two weeks after PPE 5U nasal; lungs on week 3, H&E
Source text: One of the pathological indicators of chronic obstructive pulmonary disease is changed alveolar size. Changes in the alveolar size can be analyzed by quantifying the mean linear intercept (Lm) value, representing the average distance between the alveolar walls, in a microscopic field of view. When chronic obstructive pulmonary disease is induced, this value increases, indicating an increase in the alveolar size.
Therefore, the present inventors analyzed whether it is possible to alleviate changes in lung structure by measuring the change in Lm value due to treatment with regorafenib in a mouse animal model with emphysema, a chronic obstructive pulmonary disease, prepared over three weeks through administration of PPE (FIG. 2A).
Specifically, 6-week-old C57BL/6 mice were acclimatized for one week, after which the acclimatized 7-week-old mice (average 25 g) were subjected to nasal administration with saline and PPE [elastase from porcine pancreas] (EPC, EC134) at a concentration of 5U. […] The prepared block was cut using a sectioning machine, attached to a slide, subjected to H&E staining, and then quantified by measuring the Lm value based on microscopic images.

[3] = test system: mouse animal model with emphysema induced by porcine pancreatic elastase (PPE); assay: Lung function (flexiVent) in PPE-induced emphysema mice; settings: regorafenib 5 mg/kg oral for one week from two weeks after PPE 5U nasal; flexiVent on week 3
Source text: In addition, the present inventors performed an experiment to determine whether regorafenib is able to restore lost function of damaged lungs in order to confirm whether regorafenib is able to treat chronic obstructive pulmonary disease.
Specifically, 6-week-old C57BL/6 mice were purchased and acclimatized for one week, after which the acclimatized 7-week-old mice (average 25 g) were subjected to nasal administration with saline and PPE [elastase from porcine pancreas] (EPC, EC134) at a concentration of 5U. Two weeks after administration, the mice were orally administered with 200 µl of regorafenib (SelleckChem, BAY 73-4506) at a concentration of 5 mg/kg for one week. Then, the mice were anesthetized using 300 µl of anesthetic on week 3, after which the lung function of each mouse was measured using a flexiVent (system for measuring the function of lungs) and quantified by subtracting the error value therefrom.

SMILES: CNC(=O)c1cc(Oc2ccc(NC(=O)Nc3ccc(Cl)c(C(F)(F)F)c3)c(F)c2)ccn1 [regorafenib]
- numbers of eosinophils ([1]; regorafenib 5 mg/kg oral): significantly decreased
- numbers of neutrophils ([1]; regorafenib 5 mg/kg oral): significantly decreased
- decrease of the number of immune cells increased due to PPE ([1]; regorafenib 5 mg/kg oral one day before and on days 2 and 3 after PPE 5U nasal): about 50%
- decrease of Lm value compared to the PPE treatment group [2]: about 50%
- lung function indicators [3]: restored
